Several values for one entry are separate records, joined by “and”; a condition that tells them apart may be missing. Equal values may be shown once. Read-outs that look alike come from different tables or passages of the source.
What was measured:
canine TRPM8 = target: T1, canine TRPM8 (Canis lupus familiaris, UniProt Q1A7N1); experiment: In Vitro Canine TRPM8 Functional Assay (icilin-induced intracellular Ca2+, FLIPR/FDSS); assay type: cell-based; details: for % Inh @ 0.2 μM: 0.2 μM compound; for IC50: icilin at approx. 80% maximal response, eight-point concentration-response
T1 construct: expressed in transfected cells
T1 sequence (Q1A7N1 1-1104): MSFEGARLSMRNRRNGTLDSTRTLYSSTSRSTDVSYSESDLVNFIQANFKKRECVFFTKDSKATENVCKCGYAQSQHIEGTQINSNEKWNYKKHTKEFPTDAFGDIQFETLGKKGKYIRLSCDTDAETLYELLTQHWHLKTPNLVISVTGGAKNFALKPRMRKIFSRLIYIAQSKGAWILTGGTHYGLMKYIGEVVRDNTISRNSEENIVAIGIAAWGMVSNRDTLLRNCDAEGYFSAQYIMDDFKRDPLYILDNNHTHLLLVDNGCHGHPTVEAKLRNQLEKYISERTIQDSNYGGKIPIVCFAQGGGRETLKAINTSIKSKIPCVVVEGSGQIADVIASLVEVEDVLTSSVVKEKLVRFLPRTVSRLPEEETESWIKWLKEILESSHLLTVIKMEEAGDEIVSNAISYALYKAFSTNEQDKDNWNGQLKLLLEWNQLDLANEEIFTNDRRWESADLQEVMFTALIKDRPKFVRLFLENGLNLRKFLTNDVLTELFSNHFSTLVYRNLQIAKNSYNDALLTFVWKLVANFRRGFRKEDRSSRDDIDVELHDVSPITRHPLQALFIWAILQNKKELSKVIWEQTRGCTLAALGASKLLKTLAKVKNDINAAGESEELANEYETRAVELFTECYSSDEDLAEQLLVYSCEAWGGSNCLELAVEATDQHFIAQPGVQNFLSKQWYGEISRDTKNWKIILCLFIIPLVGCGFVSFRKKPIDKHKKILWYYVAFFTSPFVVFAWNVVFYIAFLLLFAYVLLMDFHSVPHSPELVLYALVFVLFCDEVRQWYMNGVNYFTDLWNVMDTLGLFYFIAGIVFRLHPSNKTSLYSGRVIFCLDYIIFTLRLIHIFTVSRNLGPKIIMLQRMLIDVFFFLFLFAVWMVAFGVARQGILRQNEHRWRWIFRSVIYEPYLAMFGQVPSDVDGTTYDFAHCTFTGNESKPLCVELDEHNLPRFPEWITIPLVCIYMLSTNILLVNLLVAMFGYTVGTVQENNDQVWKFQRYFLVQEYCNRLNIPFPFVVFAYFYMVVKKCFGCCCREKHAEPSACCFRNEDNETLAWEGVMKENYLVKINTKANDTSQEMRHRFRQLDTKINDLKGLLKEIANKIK
Description: The functional activity of representative compounds of the formula (I) of the present invention was quantified by measuring changes in intracellular calcium concentration using a Ca^2+-sensitive fluorescent dye. The changes in fluorescent signal were monitored by a fluorescence plate reader, either a FLIPR™ (Molecular Devices) or FDSS (Hamamatsu).
HEK293 cells stably expressing canine TRPM8 were routinely grown as monolayers in Dulbecco's minimum essential medium supplemented with 10% FBS, 2 mM L-glutamine, 100 units/mL penicillin, 100 ug/mL streptomycin and 400 μg/mL G418. Cells were maintained in 5% CO2 at 37° C. At 24 hr prior to assay, cells were seeded in black wall, clear-base poly-D-lysine coated 384-well plates (BD Biosciences, NJ, USA) at a density of 5,000 cells per well in culture medium and grown overnight in 5% CO2 at 37° C. On assay day, growth media was removed, and cells were loaded with Calcium 3 Dye (Molecular Devices) for 35 min at 37° C., under 5% CO2 and then incubated for 25 min at room temperature and atmosphere. Subsequently, cells were tested for agonist-induced increases in intracellular Ca^2+ levels using FLIPR™ or FDSS. Cells were treated with compounds of the formula (I) at varying concentrations and intracellular […] was measured for 5 min prior to the addition of icilin to all wells to achieve a final concentration that produces approximately an 80% maximal response.
Basal FI was subtracted prior to normalizing data to percent of maximal response. Curves were generated using the average of quadruplicate wells for each data point using nonlinear regression of either sigmoidal dose response or sigmoidal dose response (variable slope). Finally, the EC50 and IC50 values were calculated with the best-fit curve determined by GraphPad Prism

[1] = tested on: icilin-induced "wet-dog" shakes; experiment: Inhibition of icilin-induced "wet-dog" shakes in rats; assay type: in vivo; details: male Sprague Dawley rats; 10 mg/kg p.o., 60 min pre-icilin; vehicle 10% Solutol (0.5% HPMC for 47); [1-(test compound WDS count/vehicle WDS count)]x100
Description: Male Sprague Dawley rats ([…], Charles River Labs, n=6-9/treatment) were used to evaluate the ability of test compounds to block icilin-induced “wet-dog” shakes (WDS). The test compound was administered in an appropriate vehicle, such as hydroxypropyl-β-cyclodextrin (HP-β-CD), methocellulose, 10% Solutol, H2O or the like, by the appropriate route (e.g., i.p. or p.o.), 30-60 min before icilin. Icilin was then administered in PEG-400 or 10% solutol/H2O, at 1.0 or 3.0 mg/kg, i.p. and spontaneous “wet-dog” shakes were counted 10-20 min post-icilin.
Representative compounds of the present invention were tested at 10 mg/kg p.o. and 60 min pre-incilin, according to the procedure as described above. Results, as listed in Table 7 below, are presented as a percent inhibition of shakes, which was calculated as [1−(test compound WDS count/vehicle WDS count)]×100.

[2] = HEK293 cells stably expressing canine TRPM8, icilin activation, 0.2 µM
[3] = HEK293, 0.2 μM compound, HEK293 cells stably expressing canine TRPM8, icilin activation, read-out: % Inh @ 0.2 μM
[4] = HEK293 cells stably expressing canine TRPM8, read-out: IC50

% Inh @ 0.2 μM (canine TRPM8; [2]) [%]	inhibition at 0.2 µM (canine TRPM8; [3]) [%]	IC50 (canine TRPM8; [4])	inhibition at 0.2 µM (canine TRPM8; HEK293, read-out: % Inh @ 0.2 μM) [%]	IC50 (canine TRPM8; IC50, HEK293 cells stably expressing canine TRPM8) [nM]	% Inh @ 0.2 μM (canine TRPM8; HEK293 cells stably expressing canine TRPM8, icilin activation)	Compound	% Inhibition of shakes [1] [%]
100	101	1 nM and 2 nM	–	–	–	Cn1c(N(Cc2ccc(OC(F)(F)F)cc2)S(=O)(=O)c2ccccc2)nc2ccccc21 [Compound #6]	20.2
–	–	–	100	6	–	CCn1c(N(Cc2ccc(C(F)(F)F)cc2)S(=O)(=O)c2ccccc2)nc2cc(F)ccc21 [Compound #47, N-(1-Ethyl-5-fluoro-1H-benzimidazol-2-yl)-N-(4-trifluoromethyl-benzyl)-benzenesulfonamide]	36
98	102	1 nM and 4 nM	–	–	–	Cn1c(N(Cc2ccc(F)c(C(F)(F)F)c2)S(=O)(=O)c2ccccc2)nc2ccccc21 [Compound #15, N-(4-Fluoro-3-trifluoromethyl-benzyl)-N-(1-methyl-1H-benzimidazol-2-yl)-benzenesulfonamide]	27.7
–	85	15 nM and 75 nM	–	–	85, 85%	O=S(=O)(c1ccccc1)N(Cc1ccc(C(F)(F)F)cc1)c1nc2ccccc2n1CC(F)(F)F [compound 54]	2.4
–	101	1 nM	–	–	–	Cn1c(N(Cc2ccc(F)c(Cl)c2)S(=O)(=O)c2ccccc2)nc2ccccc21 [compound 20]	32.6
–	101	35 nM	–	–	–	O=S(=O)(c1ccccc1)N(Cc1ccc(C(F)(F)F)cc1)c1nc2ccccc2n1CC1CC1 [compound 70]	–
–	82	37 nM	–	–	–	CC(C)Cn1c(N(Cc2ccc(C(F)(F)F)c(F)c2)S(=O)(=O)c2ccccc2)nc2ccccc21 [compound 50]	–
–	89	27 nM	–	–	–	O=S(=O)(c1ccccc1)N(Cc1ccc(C(F)(F)F)c(F)c1)c1nc2ccccc2n1CC(F)(F)F [Compound #60, N-(3-Fluoro-4-trifluoromethyl-benzyl)-N-[1-(2,2,2-trifluoro-ethyl)-1H-benzimidazol-2-yl]-benzenesulfonamide]	–
–	101	37 nM	–	–	–	O=S(=O)(c1ccccc1)N(Cc1ccc(C(F)(F)F)c(F)c1)c1nc2ccccc2n1CC1CC1 [Compound #71, N-(1-Cyclopropylmethyl-1H-benzimidazol-2-yl)-N-(3-fluoro-4-trifluoromethyl-benzyl)-benzenesulfonamide]	–
–	95	6 nM	–	–	–	Cn1c(N(Cc2ccc(C(F)(F)F)cc2)S(=O)(=O)c2ccc(F)cc2)nc2ccccc21 [compound 28]	–
